# Measured values as given in the NIST ThermoML archive (doi:10.1021/je049661s).
# Numbers after ± are expanded uncertainties.
# Assay: xn = mol fraction of the nth substance listed
# Details: 101.3 kPa, Liquid
smiles,measurement,setting,value
O=[N+]([O-])c1ccccc1 [nitrobenzene] + C1CCCCC1,mass density,"298.15 K, x2 = 0",1198.5 ± 2.7 kg/m3
same,viscosity,"298.15 K, x2 = 0",1.686 ± 0.026 mPa·s
same,mass density,"298.15 K, x2 = 0.0951",1160.4 ± 2.6 kg/m3
same,viscosity,"298.15 K, x2 = 0.0951",1.589 ± 0.025 mPa·s
same,mass density,"298.15 K, x2 = 0.1908",1121.8 ± 2.5 kg/m3
same,viscosity,"298.15 K, x2 = 0.1908",1.482 ± 0.023 mPa·s
same,mass density,"298.15 K, x2 = 0.2875",1080.5 ± 2.4 kg/m3
same,viscosity,"298.15 K, x2 = 0.2875",1.369 ± 0.021 mPa·s
same,mass density,"298.15 K, x2 = 0.3866",1037.9 ± 2.3 kg/m3
same,viscosity,"298.15 K, x2 = 0.3866",1.26 ± 0.02 mPa·s
same,mass density,"298.15 K, x2 = 0.4828",996 ± 2.2 kg/m3
same,viscosity,"298.15 K, x2 = 0.4828",1.167 ± 0.018 mPa·s
same,mass density,"298.15 K, x2 = 0.5865",950.4 ± 2.1 kg/m3
same,viscosity,"298.15 K, x2 = 0.5865",1.083 ± 0.017 mPa·s
same,mass density,"298.15 K, x2 = 0.685",907.2 ± 2 kg/m3
same,viscosity,"298.15 K, x2 = 0.685",1.022 ± 0.017 mPa·s
same,mass density,"298.15 K, x2 = 0.7901",861.6 ± 1.8 kg/m3
same,viscosity,"298.15 K, x2 = 0.7901",0.9712 ± 0.016 mPa·s
same,mass density,"298.15 K, x2 = 0.896",816.9 ± 1.7 kg/m3
same,viscosity,"298.15 K, x2 = 0.896",0.9338 ± 0.015 mPa·s
same,mass density,"303.15 K, x2 = 0",1193.6 ± 2.8 kg/m3
same,viscosity,"303.15 K, x2 = 0",1.619 ± 0.025 mPa·s
same,mass density,"303.15 K, x2 = 0.0951",1158 ± 2.7 kg/m3
same,viscosity,"303.15 K, x2 = 0.0951",1.527 ± 0.024 mPa·s
same,mass density,"303.15 K, x2 = 0.1908",1119.7 ± 2.6 kg/m3
same,viscosity,"303.15 K, x2 = 0.1908",1.423 ± 0.022 mPa·s
same,mass density,"303.15 K, x2 = 0.2875",1078 ± 2.5 kg/m3
same,viscosity,"303.15 K, x2 = 0.2875",1.313 ± 0.021 mPa·s
same,mass density,"303.15 K, x2 = 0.3866",1035 ± 2.4 kg/m3
same,viscosity,"303.15 K, x2 = 0.3866",1.21 ± 0.019 mPa·s
same,mass density,"303.15 K, x2 = 0.4828",993 ± 2.3 kg/m3
same,viscosity,"303.15 K, x2 = 0.4828",1.117 ± 0.018 mPa·s
same,mass density,"303.15 K, x2 = 0.5865",947.6 ± 2.2 kg/m3
same,viscosity,"303.15 K, x2 = 0.5865",1.032 ± 0.017 mPa·s
same,mass density,"303.15 K, x2 = 0.685",905 ± 2 kg/m3
same,viscosity,"303.15 K, x2 = 0.685",0.968 ± 0.016 mPa·s
same,mass density,"303.15 K, x2 = 0.7901",860 ± 1.9 kg/m3
same,viscosity,"303.15 K, x2 = 0.7901",0.9142 ± 0.015 mPa·s
same,mass density,"303.15 K, x2 = 0.896",814.4 ± 1.8 kg/m3
same,viscosity,"303.15 K, x2 = 0.896",0.874 ± 0.015 mPa·s
same,mass density,"308.15 K, x2 = 0",1191.1 ± 2.9 kg/m3
same,viscosity,"308.15 K, x2 = 0",1.554 ± 0.024 mPa·s
same,mass density,"308.15 K, x2 = 0.0951",1156 ± 2.8 kg/m3
same,viscosity,"308.15 K, x2 = 0.0951",1.489 ± 0.023 mPa·s
same,mass density,"308.15 K, x2 = 0.1908",1117.6 ± 2.7 kg/m3
same,viscosity,"308.15 K, x2 = 0.1908",1.385 ± 0.022 mPa·s
same,mass density,"308.15 K, x2 = 0.2875",1075.5 ± 2.6 kg/m3
same,viscosity,"308.15 K, x2 = 0.2875",1.276 ± 0.02 mPa·s
same,mass density,"308.15 K, x2 = 0.3866",1031.9 ± 2.5 kg/m3
same,viscosity,"308.15 K, x2 = 0.3866",1.168 ± 0.018 mPa·s
same,mass density,"308.15 K, x2 = 0.4828",990 ± 2.3 kg/m3
same,viscosity,"308.15 K, x2 = 0.4828",1.074 ± 0.017 mPa·s
same,mass density,"308.15 K, x2 = 0.5865",945 ± 2.2 kg/m3
same,viscosity,"308.15 K, x2 = 0.5865",0.9873 ± 0.016 mPa·s
same,mass density,"308.15 K, x2 = 0.685",902.3 ± 2.1 kg/m3
same,viscosity,"308.15 K, x2 = 0.685",0.9182 ± 0.015 mPa·s
same,mass density,"308.15 K, x2 = 0.7901",856.6 ± 2 kg/m3
same,viscosity,"308.15 K, x2 = 0.7901",0.8626 ± 0.014 mPa·s
same,mass density,"308.15 K, x2 = 0.896",809.1 ± 1.9 kg/m3
same,viscosity,"308.15 K, x2 = 0.896",0.8182 ± 0.014 mPa·s
O=[N+]([O-])c1ccccc1 [nitrobenzene] + O=C1CCCCC1,mass density,"298.15 K, x2 = 0",1198.5 ± 2.7 kg/m3
same,speed of sound,"298.15 K, x2 = 0",1648.4 m/s
same,viscosity,"298.15 K, x2 = 0",1.686 ± 0.026 mPa·s
same,mass density,"298.15 K, x2 = 0.098",1169.6 ± 2.7 kg/m3
same,speed of sound,"298.15 K, x2 = 0.098",1696 m/s
same,viscosity,"298.15 K, x2 = 0.098",1.752 ± 0.027 mPa·s
same,mass density,"298.15 K, x2 = 0.1946",1141.8 ± 2.6 kg/m3
same,speed of sound,"298.15 K, x2 = 0.1946",1733 m/s
same,viscosity,"298.15 K, x2 = 0.1946",1.785 ± 0.027 mPa·s
same,mass density,"298.15 K, x2 = 0.2933",1114.5 ± 2.5 kg/m3
same,speed of sound,"298.15 K, x2 = 0.2933",1764.1 m/s
same,viscosity,"298.15 K, x2 = 0.2933",1.802 ± 0.028 mPa·s
same,mass density,"298.15 K, x2 = 0.3938",1087.5 ± 2.4 kg/m3
same,speed of sound,"298.15 K, x2 = 0.3938",1790 m/s
same,viscosity,"298.15 K, x2 = 0.3938",1.812 ± 0.028 mPa·s
same,mass density,"298.15 K, x2 = 0.495",1061.3 ± 2.4 kg/m3
same,speed of sound,"298.15 K, x2 = 0.495",1811.2 m/s
same,viscosity,"298.15 K, x2 = 0.495",1.827 ± 0.028 mPa·s
same,mass density,"298.15 K, x2 = 0.592",1036.9 ± 2.3 kg/m3
same,speed of sound,"298.15 K, x2 = 0.592",1825.7 m/s
same,viscosity,"298.15 K, x2 = 0.592",1.848 ± 0.028 mPa·s
same,mass density,"298.15 K, x2 = 0.6945",1011.6 ± 2.2 kg/m3
same,speed of sound,"298.15 K, x2 = 0.6945",1839.8 m/s
same,viscosity,"298.15 K, x2 = 0.6945",1.879 ± 0.029 mPa·s
same,mass density,"298.15 K, x2 = 0.7966",987.5 ± 2.2 kg/m3
same,speed of sound,"298.15 K, x2 = 0.7966",1848.3 m/s
same,viscosity,"298.15 K, x2 = 0.7966",1.921 ± 0.029 mPa·s
same,mass density,"298.15 K, x2 = 0.8973",963.4 ± 2.1 kg/m3
same,speed of sound,"298.15 K, x2 = 0.8973",1853.5 m/s
same,viscosity,"298.15 K, x2 = 0.8973",1.97 ± 0.03 mPa·s
same,mass density,"303.15 K, x2 = 0",1193.6 ± 2.8 kg/m3
same,viscosity,"303.15 K, x2 = 0",1.619 ± 0.025 mPa·s
same,mass density,"303.15 K, x2 = 0.098",1167.6 ± 2.7 kg/m3
same,speed of sound,"303.15 K, x2 = 0.098",1842.8 m/s
same,viscosity,"303.15 K, x2 = 0.098",1.645 ± 0.025 mPa·s
same,mass density,"303.15 K, x2 = 0.1946",1140.8 ± 2.7 kg/m3
same,speed of sound,"303.15 K, x2 = 0.1946",1873 m/s
same,viscosity,"303.15 K, x2 = 0.1946",1.666 ± 0.026 mPa·s
same,mass density,"303.15 K, x2 = 0.2933",1113.4 ± 2.6 kg/m3
same,speed of sound,"303.15 K, x2 = 0.2933",1901.5 m/s
same,viscosity,"303.15 K, x2 = 0.2933",1.678 ± 0.026 mPa·s
same,mass density,"303.15 K, x2 = 0.3938",1085.6 ± 2.5 kg/m3
same,speed of sound,"303.15 K, x2 = 0.3938",1927.7 m/s
same,viscosity,"303.15 K, x2 = 0.3938",1.685 ± 0.026 mPa·s
same,mass density,"303.15 K, x2 = 0.495",1058.9 ± 2.4 kg/m3
same,speed of sound,"303.15 K, x2 = 0.495",1945 m/s
same,viscosity,"303.15 K, x2 = 0.495",1.695 ± 0.026 mPa·s
same,mass density,"303.15 K, x2 = 0.592",1034.5 ± 2.4 kg/m3
same,speed of sound,"303.15 K, x2 = 0.592",1957 m/s
same,viscosity,"303.15 K, x2 = 0.592",1.704 ± 0.026 mPa·s
same,mass density,"303.15 K, x2 = 0.6945",1009.6 ± 2.3 kg/m3
same,speed of sound,"303.15 K, x2 = 0.6945",1962 m/s
same,viscosity,"303.15 K, x2 = 0.6945",1.721 ± 0.026 mPa·s
same,mass density,"303.15 K, x2 = 0.7966",985.7 ± 2.3 kg/m3
same,speed of sound,"303.15 K, x2 = 0.7966",1963 m/s
same,viscosity,"303.15 K, x2 = 0.7966",1.749 ± 0.027 mPa·s
same,mass density,"303.15 K, x2 = 0.8973",961.9 ± 2.2 kg/m3
same,speed of sound,"303.15 K, x2 = 0.8973",1964.1 m/s
same,viscosity,"303.15 K, x2 = 0.8973",1.778 ± 0.027 mPa·s
same,mass density,"308.15 K, x2 = 0",1191.1 ± 2.9 kg/m3
same,speed of sound,"308.15 K, x2 = 0",1961 m/s
same,viscosity,"308.15 K, x2 = 0",1.554 ± 0.024 mPa·s
same,mass density,"308.15 K, x2 = 0.098",1166.8 ± 2.8 kg/m3
same,speed of sound,"308.15 K, x2 = 0.098",1991 m/s
same,viscosity,"308.15 K, x2 = 0.098",1.556 ± 0.024 mPa·s
same,mass density,"308.15 K, x2 = 0.1946",1140.3 ± 2.7 kg/m3
same,speed of sound,"308.15 K, x2 = 0.1946",2019.9 m/s
same,viscosity,"308.15 K, x2 = 0.1946",1.557 ± 0.024 mPa·s
same,mass density,"308.15 K, x2 = 0.2933",1112.9 ± 2.7 kg/m3
same,speed of sound,"308.15 K, x2 = 0.2933",2041.5 m/s
same,viscosity,"308.15 K, x2 = 0.2933",1.559 ± 0.024 mPa·s
same,mass density,"308.15 K, x2 = 0.3938",1084.9 ± 2.6 kg/m3
same,speed of sound,"308.15 K, x2 = 0.3938",2058.6 ± 1000 m/s
same,viscosity,"308.15 K, x2 = 0.3938",1.561 ± 0.024 mPa·s
same,mass density,"308.15 K, x2 = 0.495",1057.9 ± 2.5 kg/m3
same,speed of sound,"308.15 K, x2 = 0.495",2069.7 m/s
same,viscosity,"308.15 K, x2 = 0.495",1.562 ± 0.024 mPa·s
same,mass density,"308.15 K, x2 = 0.592",1033.4 ± 2.5 kg/m3
same,speed of sound,"308.15 K, x2 = 0.592",2076.4 ± 1000 m/s
same,viscosity,"308.15 K, x2 = 0.592",1.565 ± 0.024 mPa·s
same,mass density,"308.15 K, x2 = 0.6945",1008.6 ± 2.4 kg/m3
same,speed of sound,"308.15 K, x2 = 0.6945",2080.5 ± 1000 m/s
same,viscosity,"308.15 K, x2 = 0.6945",1.567 ± 0.024 mPa·s
same,mass density,"308.15 K, x2 = 0.7966",985 ± 2.3 kg/m3
same,speed of sound,"308.15 K, x2 = 0.7966",2080 m/s
same,viscosity,"308.15 K, x2 = 0.7966",1.571 ± 0.024 mPa·s
same,mass density,"308.15 K, x2 = 0.8973",961.4 ± 2.3 kg/m3
same,speed of sound,"308.15 K, x2 = 0.8973",2081.5 m/s
same,viscosity,"308.15 K, x2 = 0.8973",1.577 ± 0.024 mPa·s
